This is an account of results in PMC5749112 (The Journal of General Physiology, 2018).

“Also recorded” adds a separate entry of the source. Like-named read-outs stand apart in the source and are kept apart here.

The target of assay [1] is T1, PnuTSw reconstituted in proteoliposomes (Shewanella woodyi, UniProt B1KPL9).
T1 sequence (B1KPL9 1-212): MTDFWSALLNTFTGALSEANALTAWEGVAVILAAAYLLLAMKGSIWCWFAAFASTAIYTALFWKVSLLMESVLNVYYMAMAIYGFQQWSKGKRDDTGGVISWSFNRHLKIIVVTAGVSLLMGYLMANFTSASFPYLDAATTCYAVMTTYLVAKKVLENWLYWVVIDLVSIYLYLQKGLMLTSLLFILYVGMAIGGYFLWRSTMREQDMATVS
It is filed as biochemical. The note with it: proteoliposomes loaded with 1 mM unlabeled ligand.

A further assay addresses T2, PnuTSw (Shewanella woodyi, UniProt B1KPL9).
T2 sequence (B1KPL9 1-212): T1 sequence (B1KPL9 1-212)
It is filed as binding. The note with it: for Dissociation constant Kd: WT PnuTSw in DDM, pH 8.0.

For assay [2], the target named is T1, PnuTSw reconstituted in proteoliposomes. In kind it is biochemical. The note with it: 1 mM unlabeled analogue in outside buffer, 500 nM [3H]thiamine.
Assay [3] deals with T3, PnuTSw mutant Y159F (Shewanella woodyi, UniProt B1KPL9, W159F). The note with it: ITC, 25°C. On the technique in general: Isothermal titration calorimetry measures the heat released or taken up as one component is titrated into another.
T3 sequence (B1KPL9 1-212 W159F): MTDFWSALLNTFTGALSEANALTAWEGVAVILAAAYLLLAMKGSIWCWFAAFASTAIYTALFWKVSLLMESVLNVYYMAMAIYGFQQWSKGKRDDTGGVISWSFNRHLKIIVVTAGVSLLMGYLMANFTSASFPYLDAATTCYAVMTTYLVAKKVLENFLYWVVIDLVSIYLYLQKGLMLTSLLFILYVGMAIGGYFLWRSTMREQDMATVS
Assay [4] addresses T4, PnuTSw mutant Y162F (Shewanella woodyi, UniProt B1KPL9, W162F). The note with it: ITC, 25°C.
The target of assay [5] is T5, PnuTSw mutant Y188A (Shewanella woodyi, UniProt B1KPL9, Y188A). The note with it: ITC, 25°C.
T5 sequence (B1KPL9 1-212 Y188A): as the sequence (B1KPL9 1-212 W159F) above, with F159W, Y188A counted along it
The next assay concerns the target PnuTSw mutant D166A. The note with it: ITC, 25°C.
For assay [6], the target named is T5, PnuTSw mutant Y188A. Put plainly: biochemical.
Assay [7] concerns the target T6, PnuTSw mutant Y77A (Shewanella woodyi, UniProt B1KPL9, Y77A). Put plainly: biochemical.
In assay [8] the target is T7, PnuTSw mutant W88A (Shewanella woodyi, UniProt B1KPL9, W88A). Put plainly: biochemical.
T7 sequence (B1KPL9 1-212 W88A): as the sequence (B1KPL9 1-212 W159F) above, with W88A, F159W counted along it
For assay [9], the target named is T4, PnuTSw mutant Y162F. Kind of assay: biochemical.
The target of assay [10] is T3, PnuTSw mutant Y159F. Kind of assay: biochemical.
The target in assay [11] is T7, PnuTSw mutant W88A. The note with it: proteoliposomes.
In assay [12] the target is T6, PnuTSw mutant Y77A. The note with it: ITC, 25°C.
Assay [13] concerns the target T7, PnuTSw mutant W88A. The note with it: ITC, 25°C.
Assay [14] has as its target T8, PnuTSw mutant W199A (Shewanella woodyi, UniProt B1KPL9, W199A). Kind of assay: biochemical.
The target of assay [15] is T8, PnuTSw mutant W199A. The note with it: ITC, 25°C.

T8 sequence (B1KPL9 1-212 W199A): as the sequence (B1KPL9 1-212 W159F) above, with F159W, W199A counted along it
T4 sequence (B1KPL9 1-212 W162F): as the sequence (B1KPL9 1-212 W159F) above, with F159W, W162F counted along it
T6 sequence (B1KPL9 1-212 Y77A): as the sequence (B1KPL9 1-212 W159F) above, with Y77A, F159W counted along it

For `Cc1ncc(C[n+]2csc(CCOP(=O)(O)O)c2C)c(N)n1` [TMP, thiamine monophosphate], in [1], the “Counter flow of [3H]thiamine (transported substrate or not)” value is given as “did not trigger accumulation of the label”. In addition, on PnuTSw (ITC, 25°C), the “Dissociation constant Kd” value is listed as “binding could not be detected; also recorded: neither TMP nor TPP could bind; also recorded: No binding”. Moreover, the “Inhibition of [3H]thiamine uptake” value in [2] is recorded as “did not inhibit transport”.

For orientation: Kd means the free concentration of one partner at which half of the binding sites on the other are occupied at equilibrium, for simple one-to-one binding. A high value points to weaker binding. Turning to `Cc1ncc(C[n+]2csc(CCO)c2C)c(N)n1` [Thiamine, thiamine], the “Dissociation constant Kd” value at PnuTSw mutant Y159F [3] is “neither of the mutations affected thiamine binding”; at PnuTSw mutant Y162F [4] it was “neither of the mutations affected thiamine binding”; on PnuTSw mutant Y188A [5], “did not affect the binding of thiamine”; on PnuTSw mutant D166A, “could not be detected”; on PnuTSw mutant D166A (listed as thiamine) it was “No binding”; at PnuTSw mutant Y77A [12] it was “did not affect the binding of thiamine”. Further, the “Dissociation constant Kd” value on PnuTSw mutant W88A [13] and at PnuTSw mutant W199A [15] was “did not affect the binding of thiamine” each time. The equilibrium dissociation constant (Kd) on PnuTSw came out at 12 ± 5 µM; at PnuTSw mutant Y188A [6], 21 ± 2 µM; on PnuTSw mutant Y77A [7], 17 ± 2 µM; on PnuTSw mutant W88A [8], 13 ± 2 µM; at PnuTSw mutant Y162F [9], 26 ± 3 µM; on PnuTSw mutant Y159F [10], 23 ± 2 µM. This compound gave a Kd on PnuTSw mutant W199A [14] of 12 ± 1 µM. Moreover, the ΔH at PnuTSw (ITC, 25°C, WT PnuTSw) was -6.45 ± 5.26 kcal/mol. The compound also had a ΔS at PnuTSw (ITC, 25°C, WT PnuTSw) of 5 ± 71 J/mol/K. Moreover, on PnuTSw mutant W88A [11], the “Thiamine transport activity of mutant” value is given as “unable to transport thiamine”.

Turning to `Cc1ncc(C[n+]2csc(CCO[P@](=O)(O)OP(=O)(O)O)c2C)c(N)n1` [TPP, thiamine pyrophosphate], in assay [1], the “Counter flow of [3H]thiamine (transported substrate or not)” value was “did not trigger accumulation of the label”. Besides, the “Dissociation constant Kd” value at PnuTSw (ITC, 25°C) was “binding could not be detected; also recorded: neither TMP nor TPP could bind; also recorded: No binding”. Besides, the “Inhibition of [3H]thiamine uptake” value in assay [2] is “did not inhibit transport”.
